Consider ten compounds from patent US8754095B2, “Substituted N-heterocycloalkyl bipyrrolidinylphenyl amide derivatives, preparation and therapeutic use thereof” (Sanofi, priority 2010, dated 2014).

In series [1] the target is T1, rhesus (Macacca Mulatta) H3 receptor (Macaca mulatta, UniProt Q865E1).
T1 construct: pcDNA5/FRT/TO (Invitrogen) containing the rhesus monkey (Macacca Mulatta) 445 amino acid H3 receptor
Nature of the series: Rhesus H3 [3H]-Methylhistamine radioligand binding assay. To be noted: displacement of [3H]-Methylhistamine (2 nM), rhesus H3 membranes, Cheng-Prusoff. The arrangement: species or system rhesus monkey (Macacca Mulatta). The method, then:
Rhesus H3 membranes were prepared from the Flp-In T-REx 293 Cell Line (Invitrogen) stably transfected with pcDNA5/FRT/TO (Invitrogen) containing the rhesus monkey (Macacca Mulatta) 445 amino acid H3 receptor. (Genbank #AY231164). Stably transfected cultures were amplified in tissue culture flasks by standard tissue culture methods and induced to express rhesus H3 by exposure to 500 ng/ml tetracycline (Cellgro) for 24 hours. After induction, cells were dissociated from flasks utilizing Cell Stripper (Cellgro). Cells were centrifuged (1 K×g, 5 min) and pellet frozen in an ethanol-dry ice bath to disrupt cell membranes. Frozen cell pellet was re-suspended in 5 mM HEPES (pH 7.4, Invitrogen) at 10 ml/1000 cm2 of harvested cells. The cell suspension was drawn through an 18 gauge needle (2-3×) followed by a 23 gauge needle (2-3×) to further disrupt cell membranes. The cell suspension was centrifuged (40K×g, 30 min). Cell membrane pellet was re-suspended in 5 mM HEPES (pH 7.4, Invitrogen) at a final protein concentration of 10 mg/ml. Rhesus H3 membranes were stored under liquid nitrogen prior to use in [3]-Methylhistamine and GTPγS radioligand binding assays.
(§1) Rhesus H3 radioligand binding assay was performed using rhesus H3 receptor membranes (prepared as described above), [3H]-Methylhistamine (Perkin Elmer) and WGA SPA beads (wheat germ agglutinin scintillation proximity assay) beads (Amersham). The assay was performed in 96-well Opti-Plates (Packard). Each reaction contained 50 μl rhesus H3 membranes (20-30 μg total protein), 50 μl WGA SPA beads (0.1 μg) and 50 μl of 83 Ci/mmol [^3H]-Methylhistamine (final concentration 2 nM) and 50 μl of tested compound. The compounds of this invention and/or vehicle were diluted with binding buffer from 10 mM DMSO stocks. Assay plates were sealed with TopSeal (Perkin Elmer) and mixed on shaker (25° C., 1 hour). Assay plates were read on TopCount scintillation counter (Packard). Results were analyzed by Hill transformation and Ki values were determined by Cheng-Prusoff equation. Similar procedures were employed to determine the binding data for rat and mouse.
(In general: Displacement assays read how much labelled ligand stays bound in the presence of the test substance.)

Series [2] concerns the target Rat H3 (Rattus norvegicus, UniProt Q9QYN8). Briefly: Rat H3 radioligand binding assay. The following applies: similar procedure as rhesus binding. The method, then:
as §1

Series [3] deals with Mouse H3 (Mus musculus, UniProt P58406). Nature of the series: Mouse H3 radioligand binding assay. To be noted: similar procedure as rhesus binding. The method, then: as §1
Series [4] concerns Rats. Nature of the series: Forced-Swimming Test in Rats. The class given is in vivo. The following applies: rat, p.o. twice, 5-min test. The method, then: This example further illustrates the study of efficacy of the compounds of this invention as antidepressive agents in animal models.
The procedure was a modification of that described by Porsolt et al. (1977) Depression: a new animal model sensitive to antidepressant treatments. Nature 266:730-2. Rats were placed in individual glass cylinder (40 cm height, 18 cm diameter) containing water (22-25° C.) to a height of 15 cm. Two swimming sessions were conducted (a 15-min training session followed 24 h later by a 5-min test). After each swimming session, rats were placed under a heating lamp to avoid hypothermia. The duration of immobility was measured during the 5-min test.
Example 1 of this invention was administered p.o. twice (15 min pre-test followed by first injection 24 h prior to 5 min test) at a dosage of 10 mg/kg.
Example 2 of this invention was administered p.o. twice (15 min pre-test followed by first injection 24 h prior to 5 min test) at a dosage levels of 0.1, 1, and 10 mg/kg.

pKi: −log10 of the molar value. Counter-ions that a name gives are not always drawn.

Sequence of Rat H3 (Q9QYN8 whole entry): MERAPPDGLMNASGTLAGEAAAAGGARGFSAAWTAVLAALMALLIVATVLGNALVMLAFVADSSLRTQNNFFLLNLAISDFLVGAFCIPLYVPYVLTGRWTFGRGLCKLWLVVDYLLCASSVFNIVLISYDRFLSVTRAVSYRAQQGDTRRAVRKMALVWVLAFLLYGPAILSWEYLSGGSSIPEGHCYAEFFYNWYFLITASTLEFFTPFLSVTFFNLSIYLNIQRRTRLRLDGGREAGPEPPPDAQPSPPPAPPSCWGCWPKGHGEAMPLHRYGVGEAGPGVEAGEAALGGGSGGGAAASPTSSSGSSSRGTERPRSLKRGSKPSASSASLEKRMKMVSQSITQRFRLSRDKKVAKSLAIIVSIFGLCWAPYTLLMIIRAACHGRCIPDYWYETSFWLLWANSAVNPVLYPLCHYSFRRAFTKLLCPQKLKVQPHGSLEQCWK
Sequence of Mouse H3 (P58406 whole entry): as the sequence (Q9QYN8 whole entry) above, with T15A, A286T, A290G, R387H, I389V counted along it
T1 sequence (Q865E1 1-445): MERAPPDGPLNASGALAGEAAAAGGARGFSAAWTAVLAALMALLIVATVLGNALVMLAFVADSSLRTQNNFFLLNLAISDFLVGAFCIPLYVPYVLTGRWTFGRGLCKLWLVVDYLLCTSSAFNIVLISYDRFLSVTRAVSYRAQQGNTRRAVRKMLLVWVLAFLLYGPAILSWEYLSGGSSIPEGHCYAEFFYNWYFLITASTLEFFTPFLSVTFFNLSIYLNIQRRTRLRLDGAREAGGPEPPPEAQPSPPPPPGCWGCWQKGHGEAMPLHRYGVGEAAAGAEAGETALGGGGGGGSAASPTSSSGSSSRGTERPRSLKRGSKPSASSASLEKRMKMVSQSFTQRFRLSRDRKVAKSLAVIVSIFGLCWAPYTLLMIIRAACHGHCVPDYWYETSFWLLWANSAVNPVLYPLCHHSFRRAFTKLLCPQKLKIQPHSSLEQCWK

Usually pKi stands for the Ki on a negative log10 scale, so that one unit is a factor of ten. A word on the melting point: it is the temperature, or range, at which the solid turns liquid. Turning to `Cc1cc(N2CC[C@H](N3CCC[C@@H]3C)C2)ccc1C(=O)NC1CCOCC1` [Example 4, 2-Methyl-4-((2S,3′S)-2-methyl-[1,3′]bipyrrolidinyl-1′-yl)-N-(tetrahydro-pyran-4-yl)-benzamide], the melting point was determined as 147 °C. Besides, the pKi in series [1] was 8.82. The compound further had a pKi in series [2] of 7.71. In series [3], this compound showed a pKi of 7.92.

Turning to `C[C@H]1CCCN1[C@H]1CCN(c2ccc(CC(=O)NC3CCN(CC4CCCC4)CC3)cc2)C1` [Example 9, N-(1-Cyclopentylmethyl-piperidin-4-yl)-2-[4-((2S,3′S)-2-methyl-[1,3′]bipyrrolidinyl-1′-yl)-phenyl]-acetamide], the pKi in series [1] is 9.16; in series [2] it was 8.90.

`CNC(=O)C1CCN(Cc2ccc(N3CC[C@H](N4CCC[C@@H]4C)C3)cc2)CC1` [Example 10, 1-[4-((2S,3′S)-2-Methyl-[1,3′]bipyrrolidinyl-1′-yl)-benzyl]-piperidine-4-carboxylic acid methylamide; hydrochloride]: the pKi was 9.33 in series [1], 9.03 in series [2] and 8.36 in series [3].

For `CCOC(=O)N1CCC(NC(=O)Cc2ccc(N3CC[C@H](N4CCC[C@@H]4C)C3)cc2)CC1` [Example 8, 4-{2-[4-((2S,3′S)-2-Methyl-[1,3′]bipyrrolidinyl-1′-yl)-phenyl]-acetylamino}-piperidine-1-carboxylic acid ethyl ester], the values for the pKi in series [1] and in series [2] were 8.80 and 8.08, respectively.

For the compound `C[C@H]1CCCN1[C@H]1CCN(c2ccc(C(=O)NCC3CCOCC3)cc2)C1` [Example 5, 4-((2S,3′S)-2-Methyl-[1,3′]bipyrrolidinyl-1′-yl)-N-(tetrahydro-pyran-4-ylmethyl)-benzamide], the pKi was 8.91 in series [1], 7.72 in series [2] and 7.39 in series [3].

In the case of `C[C@H]1CCCN1[C@H]1CCN(c2ccc(CC(=O)NC3CCN(C(=O)OC(C)(C)C)CC3)cc2)C1` [Example 6], the pKi is 8.56 in series [1] and 7.71 in series [2].

Turning to `C[C@H]1CCCN1[C@H]1CCN(c2ccc(CC(=O)NC3CCNCC3)cc2)C1` [Example 7, 2-[4-((2S,3′S)-2-Methyl-[1,3′]bipyrrolidinyl-1′-yl)-phenyl]-N-piperidin-4-yl-acetamide hydrochloride], the pKi was 9.09 in series [1] and 8.95 in series [2].

Consider `C[C@H]1CCCN1[C@H]1CCN(c2ccc3cc(C(=O)NC4CCOCC4)ccc3c2)C1` [Example 2, 6-((2S,3′S)-2-Methyl-[1,3′]bipyrrolidinyl-1′-yl)-naphthalene-2-carboxylic acid (tetrahydro-pyran-4-yl)amide], for which the pKi in series [1] was 8.52; in series [2], 8.01; in series [3], 7.71. For the same compound, the “activity in forced-swimming test (duration of immobility)” value in series [4] (0.1 mg/kg), in series [4] (1 mg/kg) and in series [4] (10 mg/kg) was “active” in each case.

`C[C@H]1CCCN1[C@H]1CCN(c2ccc(C(=O)NC3CCOCC3)cc2)C1` [Example 3, 4-((2S,3′S)-2-Methyl-[1,3′]bipyrrolidinyl-1′-yl)-N-(tetrahydro-pyran-4-yl)-benzamide] displayed a melting point of 180 °C. The same compound had a negative logarithm of the Ki (pKi) in series [1] of 8.70. The compound further gave a pKi in series [2] of 7.82. In series [3], this compound gave a negative-log Ki (pKi) of 8.00.

For the compound `C[C@H]1CCCN1[C@H]1CCN(c2ccc(CC(=O)NC3CCOCC3)cc2)C1` [Example 1, 2-[4-((2S,3′S)-2-Methyl-[1,3′]bipyrrolidinyl-1′-yl)-phenyl]-N-(tetrahydro-pyran-4-yl)-acetamide], the values for the pKi in series [1], in series [2] and in series [3] were 8.60, 8.08 and 7.97, respectively. Moreover, the “activity in forced-swimming test (duration of immobility)” value in series [4] (10 mg/kg) is recorded as “active”.
